From patent US6897209B2, “Labelled factor XIIIa substrates” (GE Healthcare Limited, priority 1997, dated 2005)
One block for each molecule: values may come before it.

How the values were obtained:
human plasma clots [1] = assay: Incorporation into human plasma clots (in vitro plasma clot assay); format: biochemical; conditions: control vials without thrombin and calcium chloride, 60 minutes
Protocol: (§1) Incorporation of radiolabelled substrates into fibrin was investigated by induction of an in vitro human plasma clot in the following manner. To a siliconised 5 ml glass vial was added, (a) 800 μl of Tris(hydroxymethyl)aminomethane buffered saline pH 7.5 containing calcium chloride (50 mM Tris, 150 mM sodium chloride, 4 mM calcium chloride.), (b) 40 μl of physiological salt solution containing 100 units of thrombin per ml, (c) 400 μl of human plasma containing the radiolabelled substrate at a concentration of typically 10 kBq/ml. To aid induction of clot a roughened glass rod was added to the reaction vial. Control vials were prepared similarly but with the omission of thrombin and calcium chloride.
(§2) The proportion of total radioactivity was calculated by counting in suitable detection apparatus.
(§3) The fraction of radioactivity retained on the filter, after subtraction of the non-specific binding determined from the control, is a measure of incorporation into the filtered clots.

human plasma clots [2] = target: T1, human plasma clots (Homo sapiens, UniProt P00488); assay: as above; format: biochemical; conditions: for % specific uptake*: % retained with thrombin − % retained no thrombin; for % retained in plasma clot assay (with thrombin): human plasma with thrombin and calcium chloride, 60 minutes, ca. 20° C.
T1 construct: Factor XIII is transformed into its active form Factor XIIIa by thrombin in the presence of calcium ions; from tissue; host or cells: human plasma, clotted in vitro with thrombin and calcium chloride
T1 sequence (P00488 39-732): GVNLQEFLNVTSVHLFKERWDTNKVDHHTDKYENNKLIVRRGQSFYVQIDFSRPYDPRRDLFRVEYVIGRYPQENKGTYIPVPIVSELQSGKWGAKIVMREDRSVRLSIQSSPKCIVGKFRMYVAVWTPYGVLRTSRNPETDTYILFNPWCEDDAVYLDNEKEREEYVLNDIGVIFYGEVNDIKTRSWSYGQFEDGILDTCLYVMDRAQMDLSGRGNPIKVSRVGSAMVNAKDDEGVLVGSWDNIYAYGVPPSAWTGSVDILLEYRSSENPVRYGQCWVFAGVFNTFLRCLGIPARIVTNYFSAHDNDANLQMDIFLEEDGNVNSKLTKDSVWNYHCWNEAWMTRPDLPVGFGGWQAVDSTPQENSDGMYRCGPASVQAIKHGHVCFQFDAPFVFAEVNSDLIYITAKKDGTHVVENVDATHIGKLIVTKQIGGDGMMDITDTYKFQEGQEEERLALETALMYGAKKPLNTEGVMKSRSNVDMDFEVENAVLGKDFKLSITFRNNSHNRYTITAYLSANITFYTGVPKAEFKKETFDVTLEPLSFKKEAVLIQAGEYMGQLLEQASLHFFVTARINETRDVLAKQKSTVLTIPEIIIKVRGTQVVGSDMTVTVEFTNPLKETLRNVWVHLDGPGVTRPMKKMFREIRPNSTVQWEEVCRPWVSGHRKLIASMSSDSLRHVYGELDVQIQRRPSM
Protocol: as §1, §2, §3

Factor XIIIa = target: T2, Factor XIIIa (Homo sapiens, UniProt P00488); assay: Factor XIIIa dependency of incorporation (dimethylcasein uptake, normal vs Factor XIII deficient plasma); format: biochemical; conditions: 1 KBq/ml, 60 minutes; uptake in normal plasma minus Factor XIII deficient plasma
T2 construct: Factor XIII is transformed into its active form Factor XIIIa by thrombin in the presence of calcium ions; from tissue; host or cells: human plasma
T2 sequence (P00488 39-732 limits assumed): T1 sequence (P00488 39-732)
Protocol: The assay was changed by replacing the mercaptoethanol with aprotinin at a final concentration of 2 μg/ml, and dimethylcasein (DMC) was used instead of casein.

[3] = tested on: clots induced in rat inferior vena cava; assay: Incorporation into clots induced in a rat model (rat inferior vena cava model); format: in vivo; conditions: rat IVC model; for Clot/Blood / Clot/Heart / Clot/Liver / Clot/Lung: 60 min; for % ID/g (clot uptake) / Relative conc (cpm/g of clot by dose/g animal): compound injected 5 min post-induction, clot removed after 60 min
Protocol: The rats (Male Wistar, 250-350 g) were anaesthetised with 15% urethane. After laparotomy, the vena cava was isolated and freed of surrounding fat tissue. […] The average weight of the clots formed in this model was around 27 mg, n=32, (5-50 mg range). The so compounds were injected 5 min post-induction. After 60 min the animals were sacrificed and the clot removed, weighed and counted. Other tissues e.g. blood, lung, heart, were also dissected and counted. The uptake of tracer into the clot was determined as the relative concentration (cpm/g of clot by dose/g animal ) and clot to background tissue.

[4] = Normal rat biodistribution; format: in vivo; conditions: i.v., male Wistar rats, Mean±SD n=3
Protocol: The resolution of a clot image is dependant on the combination of rate of incorporation of the radiopharmaceutical and its blood/tissues clearance rate. For this reason the biodistribution of several compounds has been determined in rats. Male Wistar (100-150 g) rats were injected i.v. with 0.1-0.2 ml of radiolabelled tracer solution (8 MBq/ml) and dissected at different times post-injection. The % ID in each of the selected tissues was measured. Some animals were kept in metabolism cages to be able to determine the % ID excreted in urine and faeces. The dissection times used for the majority of the agents was 2, 15, 30, 60, 240 min. Data are shown as % ID, Mean±SD, (n=3).

Molecule: 1-(4-(N-(5-aminopentyl)-amidosulphonyl)benzyl)-1,4,8,11-tetraazacyclotetradecane [Compound 20]
- % retained in plasma clot assay (no thrombin) (human plasma clots [1]): 0.6%

Molecule: CC(=O)SCC(=O)NCC(=O)NCC(=O)NCC(=O)NCCCNC(=O)c1ccc(S(=O)(=O)NCCCCCN)cc1 [Compound 23, N-[S-acetyl-mercaptoacatylglycylglycylglycyl)-N′-(4-N-(5-aminopentyl)amidosulphonyl)benzoyl propane-1,3-diamine]
- % specific uptake* (human plasma clots [2]): 14.2%
- % retained in plasma clot assay (with thrombin) (human plasma clots [2]): 16%
- % retained in plasma clot assay (no thrombin) (human plasma clots [1]): 0.8%
- % specific DMC casein uptake (Factor XIIIa): 24.5%

Molecule: CC(=NO)C(C)(C)NCC(C)(CNC(=O)c1ccc(NC(=O)CCCCCN)cc1)CNC(C)(C)C(C)=NO (centres unmarked) [Compound 6, 3,3,6,9,9-pentamethyl-6-N-[4-N-(6aminohexanoyl)aminobenzoyl]aminomethyl-4,8-diazaundecane-2.10-dione dioxime]
- % specific uptake* (human plasma clots [2]): 1.5%
- % retained in plasma clot assay (with thrombin) (human plasma clots [2]): 2%
- % retained in plasma clot assay (no thrombin) (human plasma clots [1]): 0.5%
- % specific DMC casein uptake (Factor XIIIa): 13%

Molecule: CC(=NO)C(C)(C)NCC(C)(CNC(=O)c1ccc(S(=O)(=O)NCCCCCN)cc1)CNC(C)(C)C(C)=NO (centres unmarked) [Compound 3, 3,3,6,9,9-pentamethyl-6-(4-(N-(5-aminopentyl)amidosulphonyl)benzamidomethyl)-4,8-diazaundecane-2,10-dione dioxime]
- % specific uptake* (human plasma clots [2]): 19%
- % retained in plasma clot assay (with thrombin) (human plasma clots [2]): 22%
- % retained in plasma clot assay (no thrombin) (human plasma clots [1]): 3.0%
- Clot/Blood [3]: 2
- Clot/Heart [3]: 3.4
- Clot/Liver [3]: 0.23
- Clot/Lung [3]: 2.2
- % ID/g (clot uptake) [3]: 0.10 ± 0.02 % ID/g
- Relative conc (cpm/g of clot by dose/g animal) [3]: 0.37 ± 0.1
- % ID Blood ([4]; 2 min post-injection): 19.29 ± 1.7 % ID
- % ID GI Tract ([4]; 2 min post-injection): 10.1 ± 1.2 % ID
- % ID Heart ([4]; 2 min post-injection): 0.51 + 0.08 % ID
- % ID Kidney ([4]; 2 min post-injection): 5.55 + 1 % ID
- % ID Liver ([4]; 2 min post-injection): 19.34 ± 0.8 % ID
- % ID Lung ([4]; 2 min post-injection): 1.43 ± 0.16 % ID
- % ID Muscle ([4]; 2 min post-injection): 23.6 ± 0.9 % ID
- % ID Urine ([4]; 2 min post-injection): 0.06 ± 0.02 % ID
- % ID Blood ([4]; 15 min post-injection): 1.45 ± 0.38 % ID
- % ID GI Tract ([4]; 15 min post-injection): 70 + 3.4 % ID
- % ID Kidney ([4]; 15 min post-injection): 2.1 ± 0.8 % ID
- % ID Liver ([4]; 15 min post-injection): 7.79 ± 1.16 % ID
- % ID Lung ([4]; 15 min post-injection): 0.23 ± 0.12 % ID
- % ID Muscle ([4]; 15 min post-injection): 4.87 ± 0.6 % ID
- % ID Urine ([4]; 15 min post-injection): 5.01 ± 2.53 % ID
- % ID Blood ([4]; 30 min post-injection): 0.59 ± 0.07 % ID
- % ID GI Tract ([4]; 30 min post-injection): 76.5 ± 5.6 % ID
- % ID Kidney ([4]; 30 min post-injection): 2.09 ± 1.87 % ID
- % ID Liver ([4]; 30 min post-injection): 1.95 ± 0.35 % ID
- % ID Lung ([4]; 30 min post-injection): 0.03 + 0.04 % ID
- % ID Muscle ([4]; 30 min post-injection): 1.53 ± 0.71 % ID
- % ID Urine ([4]; 30 min post-injection): 14.42 ± 3.78 % ID
- % ID Blood ([4]; 60 min post-injection): 0.31 ± 0.02 % ID
- % ID GI Tract ([4]; 60 min post-injection): 79.9 ± 2.9 % ID
- % ID Kidney ([4]; 60 min post-injection): 0.57 ± 0.12 % ID
- % ID Liver ([4]; 60 min post-injection): 1.54 ± 0.29 % ID
- % ID Lung ([4]; 60 min post-injection): 0.07 ± 0.02 % ID
- % ID Muscle ([4]; 60 min post-injection): 1.14 ± 0.48 % ID
- % ID Urine ([4]; 60 min post-injection): 14.66 ± 2.83 % ID
- % ID Blood ([4]; 240 min post-injection): 0.11 ± 0.07 % ID
- % ID GI Tract ([4]; 240 min post-injection): 83.5 ± 2.2 % ID
- % ID Kidney ([4]; 240 min post-injection): 0.45 ± 0.04 % ID
- % ID Liver ([4]; 240 min post-injection): 1.35 ± 0.06 % ID
- % ID Lung ([4]; 240 min post-injection): 0.14 + 0.24 % ID
- % ID Muscle ([4]; 240 min post-injection): 0.8 ± 0.17 % ID
- % ID Urine ([4]; 240 min post-injection): 12.31 ± 1.93 % ID
- % specific DMC casein uptake (Factor XIIIa): 40%

Molecule: 3,3,6,9,9-pentamethyl-6-N-[α-N-(4-N-(5-aminopentyl)amidosulphonyl)benzoyl)amino-polethyleneglycol)-ω-carbonyl]aminomethyl-4,8-diazaundecane-2,10-dione dioxime [Compound 14]
- % specific uptake* (human plasma clots [2]): 27.8%
- % retained in plasma clot assay (with thrombin) (human plasma clots [2]): 35%
- % retained in plasma clot assay (no thrombin) (human plasma clots [1]): 7.2%
- Clot/Blood [3]: 1.3
- Clot/Heart [3]: 2.8
- Clot/Liver [3]: 2.6
- Clot/Lung [3]: 1.5
- % ID/g (clot uptake) [3]: 0.18 ± 0.03 % ID/g
- Relative conc (cpm/g of clot by dose/g animal) [3]: 0.54 ± 0.11

Molecule: CC(=NO)C(C)(C)NCC(C)(CNC(=O)[C@@H](Cc1ccccc1)NC(=O)CCCCCN)CNC(C)(C)C(C)=NO (stereo partly drawn) [Compound 5, 3,3,6,9,9-pentamethyl-6-N-[N-(6-aminohexanoyl)-D-phenylalanyl]aminomethyl-4,8-diazaundecane-2,10-dione dioxime]
- % specific uptake* (human plasma clots [2]): 4.1%
- % retained in plasma clot assay (with thrombin) (human plasma clots [2]): 6%
- % retained in plasma clot assay (no thrombin) (human plasma clots [1]): 1.9%
- % specific DMC casein uptake (Factor XIIIa): 10%

Molecule: CC(=NO)C(C)(C)NCC(C)(CN)CNC(C)(C)C(C)=NO (centres unmarked) [Compound 2, 6-aminomethyl-3,3,6,9,9-pentamethyl-4,8-diazaundecane-2, 1 0-dione dioxime]
- % specific uptake* (human plasma clots [2]): 1.7%
- % retained in plasma clot assay (with thrombin) (human plasma clots [2]): 2%
- % retained in plasma clot assay (no thrombin) (human plasma clots [1]): 0.3%

Now from value to molecule, other results behind:

- % specific uptake* (human plasma clots [2]): 4.7%
- % retained in plasma clot assay (with thrombin) (human plasma clots [2]): 5%
- % specific DMC casein uptake (Factor XIIIa): 6%
Molecule: CC(=NO)C(C)(C)NCC(C)(CNC(=O)[C@@H](CO)NC(=O)[C@@H](CO)NC(=O)[C@@H](CO)NC(=O)c1ccc(S(=O)(=O)NCCCCCN)cc1)CNC(C)(C)C(C)=NO (stereo partly drawn) [Compound 10, 3,3,6,9,9-pentamethyl-6-N-[N-(4-N-(5aminopentyl)amidosulphonyl)benzoyl-D-serine-D-serine-D-serine]aminomethyl-4,8-diazaundecane-2,10-dione dioxime]
- % retained in plasma clot assay (no thrombin) (human plasma clots [1]): 0.3%

- % specific uptake* (human plasma clots [2]): 12.8%
- % retained in plasma clot assay (with thrombin) (human plasma clots [2]): 16%
- % specific DMC casein uptake (Factor XIIIa): 24%
Molecule: CC(=NO)C(C)(C)NCC(C)(CNC(=O)N1CCN(CNC(=O)c2ccc(S(=O)(=O)NCCCCCN)cc2)CC1)CNC(C)(C)C(C)=NO (centres unmarked) [Compound 11, 3,3,6,9,9-pentamethyl-6-N-[4-N-{4-(N-(5-aminopentyl)amidosulphonyl)benzoyl}aminomethylpiperazinylcarbonyl]aminomethyl-4,8-diazaundecane-2,10-dione dioxime]
- % retained in plasma clot assay (no thrombin) (human plasma clots [1]): 3.2%

- % specific uptake* (human plasma clots [2]): 15.5%
- % retained in plasma clot assay (with thrombin) (human plasma clots [2]): 20%
- % specific DMC casein uptake (Factor XIIIa): 29%
Molecule: CC(=NO)C(C)(C)NCC(C)(CNC(=O)c1ccc(S(=O)(=O)NCCSCCN)cc1)CNC(C)(C)C(C)=NO (centres unmarked) [Compound 9, 3,3,6,9,9-pentamethyl-6-(4-(N-[(S-aminoethyl)thioethyl]amidosulphonyl)benzamidomethyl)4,8-diazaundecane-2,10-dione dioxime]
- % retained in plasma clot assay (no thrombin) (human plasma clots [1]): 4.5%
